Source: paper PMC9598367, “Discovery and Preliminary Structure-Activity Investigation of 3-Substituted-1H-imidazol-5-yl-1H-indoles with In Vitro Activity towards Methicillin-Resistant Staphylococcus aureus” (Antibiotics, 2022)
≈ marks a conversion by molar mass, not a printed value. Marks after values point to notes of the source that are not given here.

Columns and labels:
human red blood cells = experiment: Hemolytic assay; format: cell-based; settings: concentration at 10% hemolytic activity on human red blood cells; mean (n = 2)
Method: Human whole blood was washed three times with 3 volumes of 0.9% NaCl and then resuspended in same to a concentration of 0.5 × 10^8 cells/mL, as determined by manual cell count in a Neubauer hemocytometer. The washed cells were then added to the 384-well compound-containing plates for a final volume of 50 μL. After a 10 min shake on a plate shaker the plates were then incubated for 1 h at 37 °C. After incubation, the plates were centrifuged at 1000 g for 10 min to pellet cells and debris, 25 μL of the supernatant was then transferred to a polystyrene 384-well assay plate. Hemolysis was determined by measuring the supernatant absorbance at […] (OD405). The absorbance was measured using a Tecan M1000 Pro monochromator plate reader. HC10 and HC50 (concentration at 10% and 50% hemolysis, respectively) were calculated by curve fitting the inhibition values vs. log(concentration) using a sigmoidal dose–response function with variable fitting values for top, bottom and slope.

[1] = system: Cryptococcus neoformans ATCC208821; experiment: Antifungal MIC, C. neoformans; format: cell-based; settings: Cryptococcus neoformans ATCC208821; mean (n = 2)
Method: For the antifungal assay, fungi strains were cultured for 3 days on yeast extract-peptone dextrose (YPD) agar at 30 °C. A yeast suspension of 1 × 10^6 to 5 × 10^6 CFU/mL was prepared from five colonies. These stock suspensions were diluted with yeast nitrogen base (YNB) (Becton Dickinson, 233520) broth to a final concentration of 2.5 × 10^3 CFU/mL. The compounds were serially diluted 2-fold across the wells of 96-well plates (Corning 3641, nonbinding surface), with compound concentrations ranging from 0.015 to 64 μg/mL and final volumes of 50 μL, plated in duplicate. Then, 50 μL of the fungi suspension that was previously prepared in YNB broth to the final concentration of 2.5 × 10^3 CFU/mL was added to each well of the compound-containing plates, giving a final compound concentration range of 0.008 to 32 μg/mL. Plates were covered and incubated at 35 °C for 36 h without shaking. C. albicans MICs were determined by measuring the absorbance at OD530. For C. neoformans, resazurin was added at 0.006% final concentration to each well and incubated for a further 3 h before MICs were determined by measuring the absorbance at OD570–600.
(§1) Colistin and vancomycin were used as positive bacterial inhibitor standards for Gram-negative and Gram-positive bacteria, respectively. Fluconazole was used as a positive fungal inhibitor standard for C. albicans and C. neoformans. The antibiotics were provided in 4 concentrations, with 2 above and 2 below its MIC value, and plated into the first 8 wells of column 23 of the 384-well NBS plates. The quality control (QC) of the assays was determined by the antimicrobial controls and the Z′-factor (using positive and negative controls).

[2] = HEK293 cytotoxicity assay (resazurin); format: cell-based, human; settings: human; for CC50 at 20 h: concentration at 50% cytotoxicity on HEK293 cells, mean (n = 2)
Method: For the HEK293 cytotoxicity assay, cells were counted manually in a Neubauer hemocytometer and plated at a density of 5000 cells/well into each well of the 384-well plates containing the 25× (2 μL) concentrated compounds. The medium used was Dulbecco’s modified eagle medium (DMEM) supplemented with 10% fetal bovine serum (FBS). Cells were incubated together with the compounds for 20 h at 37 °C, 5% CO2. To measure cytotoxicity, 5 μL (equals 100 μM final) of resazurin was added to each well after incubation, and incubated for further 3 h at 37 °C with 5% CO2. After final incubation fluorescence intensity was measured as Fex 560/10 nm, em 590/10 nm (F560/590) using a Tecan M1000 Pro monochromator plate reader. CC50 values (concentration at 50% cytotoxicity) were calculated by normalizing the fluorescence readout, with 74 μg/mL tamoxifen as negative control (0%) and normal cell growth as positive control (100%). The concentration-dependent percentage cytotoxicity was fitted to a dose response function (using Pipeline Pilot) and CC50 values determined.

[3] = system: Staphylococcus aureus ATCC25923; experiment: MIC by broth dilution, S. aureus ATCC25923; format: cell-based; settings: Staphylococcus aureus ATCC25923; mean (n = 3)
Method: The susceptibility of S. aureus (ATCC25923) to antibiotics and compounds was determined in microplates using the standard broth dilution method in accordance with the recommendations of the Comité de l’AntibioGramme de la Société Française de Microbiologie (CA-SFM) as previously described. Briefly, the minimal inhibitory concentrations (MICs) were determined with an inoculum of 10^5 CFU in 200 µL of Mueller-Hinton broth (MHB) containing two-fold serial dilutions of each drug. […] To determine all MICs, the measurements were independently repeated in triplicate.

[4] = system: Staphylococcus aureus ATCC43300 (MRSA); experiment: MIC, MRSA ATCC43300 (CO-ADD protocol); format: cell-based; settings: Staphylococcus aureus, Staphylococcus aureus ATCC43300 (MRSA); mean (n = 2); read-out: MIC (µg/mL) MRSA
Source text: Additional antimicrobial evaluation against Staphylococcus aureus MRSA (ATCC43300), Pseudomonas aeruginosa (ATCC27853), Escherichia coli (ATCC25922), Klebsiella pneumoniae (ATCC700603), Acinetobacter baumannii (ATCC19606), Candida albicans (ATCC90028), and Cryptococcus neoformans (ATCC208821) was undertaken at the Community for Open Antimicrobial Drug Discovery at The University of Queensland (Australia) according to their standard protocols. For antimicrobial assays, the tested strains were cultured in either Luria broth (LB) (In Vitro Technologies, USB75852, Noble Park North, Australia), nutrient broth (NB) (Becton Dickson, 234000, Macquarie Park, Australia), or cation-adjusted MHB at 37 °C overnight. A sample of culture was then diluted 40-fold in fresh MHB and incubated at 37 °C for 1.5−2 h. The compounds were serially diluted 2-fold across the wells of 96-well plates (Corning 3641, Tewksbury, MA, USA, nonbinding surface), with compound concentrations ranging from 0.015 to 64 μg/mL, plated in duplicate. The resultant mid log phase cultures were diluted to the final concentration of 1 × 10^6 CFU/mL; then, 50 μL was added to each well of the compound containing plates giving a final compound concentration range of 0.008 to 32 μg/mL and a cell density of 5 × 10^5 CFU/mL. All plates were then covered and incubated at 37 °C for 18 h. Resazurin was added at 0.001% final concentration to each well and incubated for 2 h before MICs were read by eye.
as §1

c1ccc(CCn2cncc2-c2c[nH]c3ccccc23)cc1 [Compound 1, 3-(1-Phenethyl-1H-imidazol-5-yl)-1H-indole]
melting point: 69 to 70 °C | HC10 (human red blood cells): >32 µg/mL | MIC [1]: > 32 µg/mL | CC50 at 20 h [2]: 19.3 µg/mL (≈ 67.2 µM) | MIC [3]: > 200 µg/mL | MIC [4]: 16 µg/mL (≈ 55.7 µM)

COc1ccc(CCn2cncc2-c2c[nH]c3cc(Cl)ccc23)cc1 [Compound 2, 6-Chloro-3-(1-(4-methoxyphenethyl)-1H-imidazol-5-yl)-1H-indole]
melting point: 165 to 166 °C | HC10 (human red blood cells): >32 µg/mL | MIC [1]: 32 µg/mL (≈ 91 µM) | CC50 at 20 h [2]: 22.5 µg/mL (≈ 64 µM) | MIC [3]: > 200 µg/mL | MIC [4]: 16 µg/mL (≈ 45.5 µM)

Brc1ccc2[nH]cc(-c3cncn3Cc3ccc(I)cc3)c2c1 [Compound 9, 5-Bromo-3-(1-(4-iodobenzyl)-1H-imidazol-5-yl)-1H-indole]
melting point: > 200 °C | HC10 (human red blood cells): >32 µg/mL | MIC [1]: 16 µg/mL (≈ 33.5 µM) | CC50 at 20 h [2]: 5.1 µg/mL (≈ 10.7 µM) | MIC [3]: > 200 µg/mL | MIC [4]: 16 µg/mL (≈ 33.5 µM)

COc1ccc(Cn2cncc2-c2c[nH]c3ccccc23)cc1 [Compound 11, 3-(1-(4-Methoxybenzyl)-1H-imidazol-5-yl)-1H-indole]
melting point: 159 to 160 °C | HC10 (human red blood cells): >32 µg/mL | MIC [1]: > 32 µg/mL | CC50 at 20 h [2]: 25.6 µg/mL (≈ 84.4 µM) | MIC [3]: > 200 µg/mL | MIC [4]: 32 µg/mL (≈ 105 µM)

COc1ccc(Cn2cncc2-c2c[nH]c3cc(Br)ccc23)cc1 [Compound 17, 6-Bromo-3-(1-(4-methoxybenzyl)-1H-imidazol-5-yl)-1H-indole]
melting point: 188 to 189 °C | HC10 (human red blood cells): >32 µg/mL | MIC [1]: 32 µg/mL (≈ 83.7 µM) | CC50 at 20 h [2]: 11.1 µg/mL (≈ 29 µM) | MIC [3]: 25 µg/mL (≈ 65.4 µM) | MIC [4]: 32 µg/mL (≈ 83.7 µM)

Fc1ccc2c(-c3cncn3CCc3ccccc3)c[nH]c2c1 [Compound 18, 6-Fluoro-3-(1-phenethyl-1H-imidazol-5-yl)-1H-indole]
HC10 (µg/mL) (human red blood cells): >32^c µg/mL | MIC [1]: > 32 µg/mL | CC50 at 20 h [2]: 16.3 µg/mL (≈ 53.4 µM) | MIC [3]: 25 µg/mL (≈ 81.9 µM) | MIC [4]: 32 µg/mL (≈ 105 µM)

Clc1ccc2[nH]cc(-c3cncn3CCc3ccccc3)c2c1 [Compound 19, 5-Chloro-3-(1-phenethyl-1H-imidazol-5-yl)-1H-indole]
melting point: > 200 °C | HC10 (human red blood cells): >32 µg/mL | MIC [1]: > 32 µg/mL | CC50 at 20 h [2]: 17.3 µg/mL (≈ 53.8 µM) | MIC [3]: 12.5 µg/mL (≈ 38.8 µM) | MIC [4]: 16 µg/mL (≈ 49.7 µM)

Brc1ccc2[nH]cc(-c3cncn3CCc3ccccc3)c2c1 [Compound 21, 5-Bromo-3-(1-phenethyl-1H-imidazol-5-yl)-1H-indole]
melting point: 110 to 111 °C | HC10 (human red blood cells): >32 µg/mL | MIC [1]: 32 µg/mL (≈ 87.4 µM) | CC50 at 20 h [2]: 10.6 µg/mL (≈ 28.9 µM) | MIC [3]: 6.25 µg/mL (≈ 17.1 µM) | MIC [4]: 16 µg/mL (≈ 43.7 µM)

Brc1ccc2c(-c3cncn3CCc3ccccc3)c[nH]c2c1 [Compound 22, 6-Bromo-3-(1-phenethyl-1H-imidazol-5-yl)-1H-indole]
HC10 (human red blood cells): >32 µg/mL | MIC [1]: 32 µg/mL (≈ 87.4 µM) | CC50 at 20 h [2]: 12.7 µg/mL (≈ 34.7 µM) | MIC [3]: 12.5 µg/mL (≈ 34.1 µM) | MIC [4]: 16 µg/mL (≈ 43.7 µM)

COc1ccc(CCn2cncc2-c2c[nH]c3ccccc23)cc1 [Compound 23, 3-(1-(4-Methoxyphenethyl)-1H-imidazol-5-yl)-1H-indole]
melting point: 158 to 159 °C | HC10 (human red blood cells): >32 µg/mL | MIC [1]: > 32 µg/mL | CC50 at 20 h [2]: 24.5 µg/mL (≈ 77.2 µM) | MIC [3]: 100 µg/mL (≈ 315 µM) | MIC [4]: 32 µg/mL (≈ 101 µM)

COc1ccc(CCn2cncc2-c2c[nH]c3cc(F)ccc23)cc1 [Compound 25, 6-Fluoro-3-(1-(4-methoxyphenethyl)-1H-imidazol-5-yl)-1H-indole]
HC10 (human red blood cells): >32 µg/mL | MIC [1]: > 32 µg/mL | CC50 at 20 h [2]: 27 µg/mL (≈ 80.5 µM) | MIC [3]: 100 µg/mL (≈ 298 µM) | MIC [4]: 16 µg/mL (≈ 47.7 µM)

COc1ccc(CCn2cncc2-c2c[nH]c3ccc(Br)cc23)cc1 [Compound 27, 5-Bromo-3-(1-(4-methoxyphenethyl)-1H-imidazol-5-yl)-1H-indole]
melting point: 157 to 158 °C | HC10 (human red blood cells): >32 µg/mL | MIC [1]: > 32 µg/mL | CC50 at 20 h [2]: 16 µg/mL (≈ 40.4 µM) | MIC [3]: 12.5 µg/mL (≈ 31.5 µM) | MIC [4]: 8 µg/mL (≈ 20.2 µM)

COc1ccc(CCn2cncc2-c2c[nH]c3cc(Br)ccc23)cc1 [Compound 28, 6-Bromo-3-(1-(4-methoxyphenethyl)-1H-imidazol-5-yl)-1H-indole]
melting point: 184 to 185 °C | HC10 (human red blood cells): >32 µg/mL | MIC [1]: 32 µg/mL (≈ 80.7 µM) | CC50 at 20 h [2]: 15.6 µg/mL (≈ 39.4 µM) | MIC [3]: 12.5 µg/mL (≈ 31.5 µM) | MIC [4]: 32 µg/mL (≈ 80.7 µM)

COc1ccc(OC)c(CCn2cncc2-c2c[nH]c3ccccc23)c1 [Compound 29, 3-(1-(2,5-Dimethoxyphenethyl)-1H-imidazol-5-yl)-1H-indole]
HC10 (human red blood cells): >32 µg/mL | MIC [1]: > 32 µg/mL | CC50 at 20 h [2]: 11.5 µg/mL (≈ 33.1 µM) | MIC [3]: > 200 µg/mL | MIC [4]: 32 µg/mL (≈ 92.1 µM)

COc1ccc(OC)c(CCn2cncc2-c2c[nH]c3ccc(Br)cc23)c1 [Compound 34, 5-Bromo-3(1-(2,5-dimethoxyphenethyl)-1H-imidazol-5-yl)-1H-indole]
melting point: 141 to 142 °C | HC10 (human red blood cells): >32 µg/mL | MIC [1]: > 32 µg/mL | CC50 at 20 h [2]: 6.2 µg/mL (≈ 14.5 µM) | MIC [3]: 25 µg/mL (≈ 58.6 µM) | MIC [4]: 16 µg/mL (≈ 37.5 µM)

Brc1ccc2c(-c3cncn3CCc3ccc4c(c3)OCO4)c[nH]c2c1 [Compound 42, 3-(1-(2-(Benzo[d][1,3]dioxol-5-yl)ethyl)-1H-imidazol-5-yl)-6-bromo-1H-indole]
melting point: 194 to 195 °C | HC10 (human red blood cells): >32 µg/mL | MIC [1]: 32 µg/mL (≈ 78 µM) | CC50 at 20 h [2]: 16.1 µg/mL (≈ 39.2 µM) | MIC [3]: 12.5 µg/mL (≈ 30.5 µM) | MIC [4]: 16 µg/mL (≈ 39 µM)

CC/C(=C(\c1ccccc1)c1ccc(OCCN(C)C)cc1)c1ccccc1 [Tamoxifen, reference compound]
IC50 at 20 h ([2]; HEK293 cells, positive control): 9 µg/mL (≈ 24.2 µM)
